pIC50: −log10 of the molar value. Values joined by “and” are separate entries in the source; they are usually repeats but may differ in a detail not shown here. Identical values can stand only once. Like-named read-outs stand apart in the source and are kept apart here.
What was measured:
Mtb20SOG = Mtb20SOG (Mycobacterium tuberculosis, UniProt P9WHT9); assay: biochemical
[1] = biological target: Human Constitutive (Hu C-20S) β5 Active Subunit (Homo sapiens, UniProt P28074); assay: IC50 determination, human constitutive 20S proteasome β5c (suc-LLVY-AMC hydrolysis); format: biochemical; settings: Table 2; several values in a cell are repeat determinations; read-out: Hu c-20S IC50
[2] = Table 2, several values in a cell are repeat determinations

Mtb20SOG, sequence (P9WHT9 58-291): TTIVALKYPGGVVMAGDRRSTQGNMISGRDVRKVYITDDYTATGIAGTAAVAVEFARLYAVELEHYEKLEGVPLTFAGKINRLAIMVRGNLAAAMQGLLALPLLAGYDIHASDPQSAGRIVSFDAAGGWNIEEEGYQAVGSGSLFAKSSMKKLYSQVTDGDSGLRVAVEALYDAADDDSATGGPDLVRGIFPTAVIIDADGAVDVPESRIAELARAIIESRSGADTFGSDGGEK

| SMILES | pIC50 (Mtb20SOG) | pIC50 [1] | pIC50 (Mtb20SOG; [2]) |
| --- | --- | --- | --- |
| Cc1cc(C(=O)NC(CC(=O)N2CCCCC2C)C(=O)NC(C)c2ncc(-c3ccccc3)[nH]2)no1 (mixture of isomers) [CF-503094] | 6.33 and 6.14 | 4.92 and 4.96 |  |
| C[C@H](NC(=O)[C@H](CC(=O)N1CCCC[C@@H]1C)NC(=O)C1CC(C)(C)C1)c1nc2c(F)cccc2[nH]1 (single isomer, unassigned) [CF-503465] |  | 5.12 and 5.72 | 7.60 and 7.49 |
| Cc1cc(C(=O)N[C@@H](CC(=O)N2CCCC[C@@H]2C)C(=O)N[C@@H](C)c2ncc(-c3ccccc3)[nH]2)no1 [CF-503102] |  | 4.85 and 5.00 | 6.14 and 6.36 |
| Cc1cc(C(=O)N[C@@H](CC(=O)N2CCCC[C@@H]2C)C(=O)N[C@@H](C)c2ncc(-c3ccccc3F)[nH]2)no1 [CF-503103] | 6.80 and 6.51 | < 4.82 |  |
| Cc1cc(C(=O)N[C@@H](CC(=O)N2CCCC[C@@H]2C)C(=O)N[C@@H](C)c2ncc(-c3ccc(F)cc3)[nH]2)no1 [CF-503105] | 6.59 | < 4.74 and 4.72 |  |
| Cc1cc(C(=O)N[C@@H](CC(=O)N2CCCC[C@@H]2C)C(=O)N[C@@H](C)c2ncc(-c3ccc(F)cc3F)[nH]2)no1 [CF-503111] | 7.39 and 7.47 | 5.14 and 5.26 |  |
| Cc1cc(C(=O)N[C@@H](CC(=O)N2CCC[C@@H]2c2ccccc2)C(=O)NC(C)c2nc3ccccc3[nH]2)no1 (stereo partly drawn) [CF-503127] | 7.08 and 7.00 | 5.15 |  |
| Cc1cc(C(=O)N[C@@H](CC(=O)N2CCCC[C@@H]2C)C(=O)N[C@@H](C)c2ncc(Cc3ccccc3)[nH]2)no1 [CF-503133] |  | 5.25 and 5.15 | 6.58 and 6.64 |
| Cc1cc(C(=O)N[C@@H](CC(=O)N2CCC[C@@H]2c2ccccc2)C(=O)N[C@@H](C)c2ncc(Cc3ccccc3)[nH]2)no1 [CF-503134] | 7.05 and 7.24 | 5.13 and 5.12 |  |
| C[C@H](NC(=O)[C@H](CC(=O)N1CCCC[C@@H]1C)NC(=O)CC1CCOCC1)c1ncc(Cc2ccccc2)[nH]1 [CF-503135] |  | 5.04 and 4.87 | 6.35 and 6.41 |
| C[C@H](NC(=O)[C@H](CC(=O)N1CCCC[C@@H]1C)NC(=O)CC1CC1)c1ncc(Cc2ccccc2)[nH]1 [CF-503136] |  | 4.98 | 6.03 |
| C[C@H](NC(=O)[C@H](CC(=O)N1CCC[C@@H]1c1ccccc1)NC(=O)CC1CC1)c1ncc(Cc2ccccc2)[nH]1 [CF-503137] | 7.11 and 7.19 | 4.90 and 4.97 |  |
| C[C@H](NC(=O)[C@H](CC(=O)N1CCCC[C@@H]1C)NC(=O)CC1CC1)c1ncc(-c2ccc(F)cc2F)[nH]1 [CF-503138] |  | 4.93 and 4.98 | 6.77 and 7.07 |
| C[C@H](NC(=O)[C@H](CC(=O)N1CCCC[C@@H]1C)NC(=O)CC1CCOCC1)c1ncc(-c2ccc(F)cc2F)[nH]1 [CF-503139] | 7.05 and 6.83 | 4.89 and 4.99 |  |
| C[C@H](NC(=O)[C@H](CC(=O)N1CCCC[C@@H]1C)NS(=O)(=O)Cc1ccccc1)c1ncc(-c2ccc(F)cc2F)[nH]1 [CF-503140] |  | 5.21 | 6.42 |
| CC(C)CS(=O)(=O)N[C@@H](CC(=O)N1CCCC[C@@H]1C)C(=O)N[C@@H](C)c1ncc(-c2ccc(F)cc2F)[nH]1 [CF-503141] |  | 5.31 | 6.43 |
| C[C@H](NC(=O)[C@H](CC(=O)N1CCCC[C@@H]1C)NS(=O)(=O)c1ccccc1)c1ncc(-c2ccc(F)cc2F)[nH]1 [CF-503142] |  | 5.09 | 6.19 |
| Cc1ccc(S(=O)(=O)N[C@@H](CC(=O)N2CCCC[C@@H]2C)C(=O)N[C@@H](C)c2ncc(-c3ccc(F)cc3F)[nH]2)cc1 [CF-503143] | 6.31 | 5.19 |  |
| CCS(=O)(=O)N[C@@H](CC(=O)N1CCCC[C@@H]1C)C(=O)N[C@@H](C)c1ncc(-c2ccc(F)cc2F)[nH]1 [CF-503144] |  | 4.55 | 5.72 |
| C[C@H](NC(=O)[C@H](CC(=O)N1CCCC[C@@H]1C)NCC(=O)c1ccccc1)c1ncc(-c2ccc(F)cc2F)[nH]1 [CF-503145] |  | 4.82 | 5.00 |
| C[C@H](NC(=O)[C@H](CC(=O)N1CCCC[C@@H]1C)NC(=O)C1CCC1)c1ncc(-c2ccc(F)cc2F)[nH]1 [CF-503146] | 6.79 | 5.62 |  |
| Cc1cc(C(=O)N[C@@H](CC(=O)N2CCCC[C@@H]2C)C(=O)N[C@@H](C)c2nc3ccccc3[nH]2)no1 [CF-503148] |  | 4.76 | 6.04 |
| CC(C)CCC(=O)N[C@@H](CC(=O)N1CCCC[C@@H]1C)C(=O)N[C@@H](C)c1nc2ccccc2[nH]1 [CF-503149] |  | 4.72 and 4.63 | 6.87 and 6.93 |
| CC(C)C(=O)CN[C@@H](CC(=O)N1CCCC[C@@H]1C)C(=O)N[C@@H](C)c1ncc(-c2ccc(F)cc2F)[nH]1 [CF-503151] | 4.94 | 5.00 |  |
| Cc1cc(C(=O)N[C@@H](CC(=O)N2CCC[C@@H]2c2ccccc2)C(=O)N[C@@H](C)c2nc3ccccc3[nH]2)no1 [CF-503152] | 6.74 and 6.90 | 4.96 and 5.01 |  |
| CC(C)CCC(=O)N[C@@H](CC(=O)N1CCC[C@@H]1c1ccccc1)C(=O)NC(C)c1nc2ccccc2[nH]1 (stereo partly drawn) [CF-503153] |  | 4.70 | 7.54 and 7.28 |
| CC(C)CCS(=O)(=O)N[C@@H](CC(=O)N1CCC[C@@H]1c1ccccc1)C(=O)NC(C)c1nc2ccccc2[nH]1 (stereo partly drawn) [CF-503154] |  | 4.93 | 6.94 and 6.69 |

| SMILES | pIC50 (Mtb20SOG) | pIC50 [1] | pIC50 (Mtb20SOG; [2]) |
| --- | --- | --- | --- |
| CC1CC(C(=O)N[C@@H](CC(=O)N2CCC[C@@H]2c2ccccc2)C(=O)NC(C)c2nc3ccccc3[nH]2)C1 (stereo partly drawn) [CF-503155] | 6.90 | 5.08 |  |
| C[C@H](NC(=O)[C@H](CC(=O)N1CCC[C@@H]1c1ccccc1)NC(=O)CCC(C)(C)C)c1nc2ccccc2[nH]1 [CF-503156] |  | 4.78 | 7.06 |
| CC(C)CCS(=O)(=O)N[C@@H](CC(=O)N1CCCC[C@@H]1C)C(=O)N[C@@H](C)c1ncc(-c2ccc(F)cc2F)[nH]1 [CF-503157] |  | 5.12 and 5.02 | 5.97 and 6.16 |
| C[C@H](NC(=O)[C@H](CC(=O)N1CCCC[C@@H]1C)NC(=O)CCC(C)(C)C)c1ncc(-c2ccc(F)cc2F)[nH]1 [CF-503158] |  | 5.28 and 5.07 | 7.57 and 7.66 |
| CC(C)CCC(=O)N[C@@H](CC(=O)N1CCCC1)C(=O)N[C@@H](C)c1ncc(-c2ccc(F)cc2F)[nH]1 [CF-503159] |  | 4.98 | 5.46 |
| C[C@H](NC(=O)[C@H](CC(=O)N1CCCC1)NC(=O)CCC(C)(C)C)c1ncc(-c2ccc(F)cc2F)[nH]1 [CF-503160] |  | 4.99 | 6.10 |
| Cc1cc(C(=O)N[C@@H](CC(=O)N2CCCC2)C(=O)N[C@@H](C)c2nc(-c3ccc(F)cc3F)c[nH]2)no1 [CF-503161] | 5.48 | 4.78 |  |
| C[C@H](NC(=O)[C@H](CC(=O)N1CCC[C@@H]1C)NC(=O)CCC(C)(C)C)c1ncc(-c2ccc(F)cc2F)[nH]1 [CF-503162] |  | 5.20 and 5.24 | 6.76 and 6.89 |
| C[C@H](NC(=O)[C@H](CC(=O)N1CCC[C@@H]1C)NC(=O)CCC(C)(C)C)c1nc2ccccc2[nH]1 [CF-503163] | 5.46 | 4.78 |  |
| CC(C)CCNc1nc(C(=O)N[C@@H](C)C(=O)NCc2ccc(F)cc2F)cc(N2CCCC2)n1 [CF-503175] |  | 5.34 and 5.26 | 5.34 and 5.25 |
| CC(C)CCS(=O)(=O)N[C@@H](CC(=O)N1CCC[C@@H]1c1ccccc1)C(=O)N[C@@H](C)c1nc2ccccc2[nH]1 [CF-503183] |  | 4.99 and 5.01 and 5.00 | 6.65 and 6.62 and 6.91 |
| CC(C)CCS(=O)(=O)NC(CC(=O)N1CCCC1c1ccccc1)C(=O)NC(C)c1nc2ccccc2[nH]1 (stereo not drawn) [CF-503184] | 5.59 | 4.97 |  |
| C[C@H](NC(=O)N(CC(=O)N1CCCC[C@@H]1C)NC(=O)CCC(C)(C)C)c1ncc(-c2ccc(F)cc2F)[nH]1 [CF-503189] |  | 5.12 and 4.99 | 5.13 and 5.09 |
| C[C@@H](NC(=O)[C@H](CC(=O)N1CCC[C@@H]1C)NC(=O)CCC(C)(C)C)c1nc2ccccc2[nH]1 [CF-503190] | 5.58 | 4.76 |  |
| C[C@H]1CCCCN1C(=O)C[C@H](NC(=O)CCC(C)(C)C)C(=O)NCc1nc2ccccc2[nH]1 [CF-503191] | 6.34 | 4.99 |  |
| CC(C)CCC(=O)N[C@@H](CC(=O)N1CCCC[C@@H]1C)C(=O)N[C@H](C)c1nc2ccccc2[nH]1 [CF-503192] |  | 4.81 | 5.31 |
| CC(C)CCC(=O)N[C@@H](CC(=O)N1CCCC[C@@H]1C)C(=O)NCc1nc2ccccc2[nH]1 [CF-503193] |  | 4.75 | 6.19 |
| CCN(CC)C(=O)C[C@H](NC(=O)CCC(C)C)C(=O)N[C@@H](C)c1nc(-c2ccc(F)cc2F)c[nH]1 [CF-503197] | 5.95 | 5.14 |  |
| CC(C)CCC(=O)N[C@@H](CC(=O)N1CCCC[C@@H]1C)C(=O)N[C@@H](C)c1ncc(-c2ccc(F)cc2F)[nH]1 [CF-503198] |  | 5.14 | 5.80 |
| CC(C)CCC(=O)N[C@@H](CC(=O)N1CCCC[C@H]1C)C(=O)N[C@@H](C)c1nc(-c2ccc(F)cc2F)c[nH]1 [CF-503199] | 6.00 | 4.98 |  |
| CC(C)CCC(=O)N[C@@H](CC(=O)N(C)C(C)C)C(=O)N[C@@H](C)c1ncc(-c2ccc(F)cc2F)[nH]1 [CF-503200] |  | 4.83 | 6.04 |
| C[C@H](NC(=O)N(CC(=O)N1CCCC[C@@H]1C)NC(=O)OC(C)(C)C)C(=O)NCc1ccc(F)cc1F [CF-503201] |  | 5.07 and < 5.10 | 5.08 and < 5.10 |
| C[C@H](NC(=O)N(CC(=O)N1CCCC[C@@H]1C)NC(=O)CCC(C)(C)C)C(=O)NCc1ccc(F)cc1F [CF-503202] |  | 5.07 and 5.04 | 5.08 and 5.06 |
| C[C@H](NC(=O)[C@H](CC(=O)N1CCCC[C@@H]1C)NC(=O)CCC1CC1)c1ncc(-c2ccc(F)cc2F)[nH]1 [CF-503204] |  | 4.93 | 7.01 |
| C[C@H](NC(=O)[C@H](CC(=O)N1CCCC[C@@H]1C)NS(=O)(=O)CCC1CC1)c1ncc(-c2ccc(F)cc2F)[nH]1 [CF-503206] |  | 5.21 | 6.30 |
| CC(C)CCC(=O)N[C@@H](CC(=O)N1CCOC[C@@H]1C)C(=O)N[C@@H](C)c1nc(-c2ccc(F)cc2F)c[nH]1 [CF-503210] | 6.39 | 4.82 |  |
| CC(C)CCC(=O)N[C@@H](CC(=O)N1CCCC[C@@H]1C(F)(F)F)C(=O)N[C@@H](C)c1nc(-c2ccc(F)cc2F)c[nH]1 [CF-503212] | 6.46 | 5.31 |  |
